Test results as given in PubChem BioAssay (NCI).
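Five compound concentrations were applied to cells in 96-well plates for 48 hours; endpoints were derived by simple linear interpolation of the resulting dose-response curve. Definition used: TGI = concentration required for complete inhibition of growth.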

How the values were obtained:
Test in all cases: inhibition of tumour cell growth, NCI panel, 48 h
[1] = test system: 786-0 renal
[2] = test system: A549 NSCLC
[3] = test system: ACHN renal
[4] = test system: BT-549 breast
[5] = test system: CAKI-1 renal
[6] = test system: CCRF-CEM leukemia
[7] = test system: COLO 205 colon
[8] = test system: DU-145 prostate
[9] = test system: EKVX NSCLC
[10] = test system: HCC-2998 colon
[11] = test system: HCT-116 colon
[12] = test system: HCT-15 colon
[13] = test system: HL-60(TB) leukemia
[14] = test system: HOP-92 NSCLC
[15] = test system: HS 578T breast
[16] = test system: IGROV1 ovarian
[17] = test system: K-562 leukemia
[18] = test system: KM12 colon
[19] = test system: LOX IMVI melanoma
[20] = test system: M14 melanoma
[21] = test system: MALME-3M melanoma
[22] = test system: MCF7 breast
[23] = test system: MDA-MB-231 breast
[24] = test system: MDA-MB-435
[25] = test system: MDA-N
[26] = test system: MOLT-4 leukemia
[27] = test system: NCI-H226 lung
[28] = test system: NCI-H460 lung
[29] = test system: NCI-H522 lung
[30] = test system: NCI/ADR-RES ovarian
[31] = test system: OVCAR-3 ovarian
[32] = test system: OVCAR-4 ovarian
[33] = test system: OVCAR-5 ovarian
[34] = test system: OVCAR-8 ovarian
[35] = test system: PC-3 prostate
[36] = test system: RPMI-8226 leukemia
[37] = test system: RXF 393 renal
[38] = test system: SF-268 CNS
[39] = test system: SF-295 CNS
[40] = test system: SF-539 CNS
[41] = test system: SK-MEL-2 melanoma
[42] = test system: SK-MEL-28 melanoma
[43] = test system: SK-MEL-5 melanoma
[44] = test system: SN12C renal
[45] = test system: SNB-19 CNS
[46] = test system: SNB-75 CNS
[47] = test system: SR leukemia
[48] = test system: SW-620 colon
[49] = test system: T-47D breast
[50] = test system: TK-10 renal
[51] = test system: U251 CNS
[52] = test system: UACC-257 melanoma
[53] = test system: UACC-62 melanoma
[54] = test system: UO-31 renal
[55] = test system: A498 renal
[56] = test system: HOP-62 NSCLC
[57] = test system: HT29 colon
[58] = test system: NCI-H23 lung
[59] = test system: SK-OV-3 ovarian

Measured: TGI

Cc1cc2c(cc1C)C(=O)C1(C2)Cc2c(C)ccc(C)c2C1=O (stereo not given)
not listed: [55] | [56] | [57] | [58] | [59]
> 100 µM: all other assays above

O=C1c2cccc3cccc(c23)C2NCCCN12 (stereo not given)
80.4 µM: [29]
89.5 µM: [46]
not listed: [36] | [40] | [41]
> 100 µM: all other assays above
